Results from patent publication US10683293B2, “Optionally fused heterocyclyl-substituted derivatives of pyrimidine useful for the treatment of inflammatory, metabolic, oncologic and autoimmune diseases” (NUEVOLUTION A/S, priority 2014, dated 2020).
pIC50: −log10 of the molar value.

What was measured:
[1] = target: T1, human RORγt (Ligand Binding Domain) (Homo sapiens, UniProt P51449); experiment: Fluorescence Polarization (FP) Assay; details: 100 nM human RORγt LBD, 25 nM TAMRA probe, values are activity range bounds
T1 construct: purchased Crelux (Planegg, Germany) batch no PC5032-1
T1 sequence (P51449 269-508 limits assumed): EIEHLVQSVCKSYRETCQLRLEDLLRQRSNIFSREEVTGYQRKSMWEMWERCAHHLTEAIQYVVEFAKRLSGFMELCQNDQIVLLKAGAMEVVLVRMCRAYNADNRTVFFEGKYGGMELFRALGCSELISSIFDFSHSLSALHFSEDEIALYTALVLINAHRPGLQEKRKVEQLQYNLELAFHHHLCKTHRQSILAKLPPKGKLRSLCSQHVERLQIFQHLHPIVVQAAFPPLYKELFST
Procedure, shortened: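 In vitro fluorescence polarization binding assay on the RORγt ligand-binding pocket. A TAMRA-labelled RORγt ligand probe (MW 910 g/mol) was used, with DMSO as negative control.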

[2] = target: T2, ligand binding domain of human RORγ (Homo sapiens, UniProt P51449); experiment: RORγ Reporter Assay (Gal4); type: cell-based; details: for inhibition at 1 µM: HEK-293T, read-out: Gal4 activity range @ 1 μM (% inhibition); for Gal4 activity range @ 0.1 μM (% inhibition): RORγ Reporter Assay (Gal4), HEK293t reporter cells, compound at 0.1 μM, values are activity range bounds
T2 construct: host or cells: HEK293t
T2 sequence (P51449 269-508 limits assumed): T1 sequence (P51449 269-508 limits assumed)
Procedure, shortened: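 HEK293t cells expressing Gal4 DBD–human RORγ LBD hybrid with Gal4-UAS firefly luciferase reporter; compounds at final 1,000 nM and 100 nM (0.1% DMSO), triplicate, medium with 10% charcoal-stripped FBS, 24 h at 37 °C. Luminescence read; percent reduction of RORγ activity calculated versus vehicle-only wells.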

[3] = 1 μM test compound, HEK293t RORγ reporter cells, 24 hour

pIC50 [1]	inhibition at 1 µM [2, 3] [%]	Gal4 activity range @ 0.1 μM (% inhibition) [2] [% inhibition]	Gal4 activity range @ 1 μM (% inhibition) ([2]; 1 μM test compound, HEK293t RORγ reporter cells, 24 hour, 1 µM) [%]	SMILES
> 6.30	> 80	>50	–	CC(C)c1ccc(CN(c2ncnc(NCc3ccc(CC(N)=O)cc3)c2F)C2CC2)cn1 [Example A97, 2-[4-[[[6-[cyclopropyl-[(6-isopropyl-3-pyridyl)methyl]amino]-5-fluoro-pyrimidin-4-yl]amino]methyl]phenyl]acetamide]
> 6.30	> 80	>50	–	NC(=O)Cc1ccc(CNc2ncnc(N(Cc3cnc(C(F)(F)F)nc3)C3CC3)c2F)cc1 [Example A98, 2-[4-[[[6-[cyclopropyl-[[2-(trifluoromethyl)pyrimidin-5-yl]methyl]amino]-5-fluoro-pyrimidin-4-yl]amino]methyl]phenyl]acetamide]
> 6.30	> 50	>50	–	NC(=O)Cc1ccc(CNc2ncnc(N(Cc3cccc(C(F)(F)F)c3)C3CC3)c2F)cc1 [Example A101, 2-[4-[[[6-[cyclopropyl-[[3-(trifluoromethyl)phenyl]methyl]amino]-5-fluoro-pyrimidin-4-yl]amino]methyl]phenyl]acetamide]
> 6.00	> 80	>0	–	CC(c1ccc(C(F)(F)F)nc1)N(c1ncnc(NCc2ccc(CC(N)=O)cc2)c1F)C1CC1 (stereo not shown) [Example A103, 2-[4-[[[6-[cyclopropyl-[1-[6-(trifluoromethyl)-3-pyridyl]ethyl]amino]-5-fluoro-pyrimidin-4-yl]amino]methyl]phenyl]acetamide]
> 6.00	> 80	>50	–	CC(c1ccc(C(F)(F)F)cn1)N(c1ncnc(NCc2ccc(CC(N)=O)cc2)c1F)C1CC1 (stereo not shown) [Example A104, 2-[4-[[[6-[cyclopropyl-[1-[5-(trifluoromethyl)-2-pyridyl]ethyl]amino]-5-fluoro-pyrimidin-4-yl]amino]methyl]phenyl]acetamide]
> 6.00	> 50	>0	–	NC(=O)Cc1ccc(CNc2cc(N(Cc3ccc(C(F)(F)F)cc3)C3CC3)ncn2)cc1 [Example A107, 2-[4-[[[6-[cyclopropyl-[[4-(trifluoromethyl)phenyl]methyl]amino]pyrimidin-4-yl]amino]methyl]phenyl]acetamide]
> 5.70	> 80	>20	–	CS(=O)(=O)c1ccc(CNc2ncnc(N(Cc3ccc(C(F)(F)F)cn3)C3CC3)c2F)cn1 [Example A108, N4-cyclopropyl-5-fluoro-N6-[(6-methylsulfonyl-3-pyridyl)methyl]-N4-[[5-(trifluoromethyl)-2-pyridyl]methyl]pyrimidine-4,6-diamine]
> 6.30	> 80	>0	–	CS(=O)(=O)Nc1ncc(CNc2ncnc(N(Cc3ccc(C(F)(F)F)cc3)C3CC3)c2F)cc1F [Example A109, N-[5-[[[6-[cyclopropyl-[[4-(trifluoromethyl)phenyl]methyl]amino]-5-fluoro-pyrimidin-4-yl]amino]methyl]-3-fluoro-2-pyridyl]methanesulfonamide]
> 5.70	> 50	>0	–	CS(=O)(=O)c1ccc(CNc2ncnc(N(Cc3ccc(C(F)(F)F)nc3)C3CC3)c2F)cn1 [Example A110, N4-cyclopropyl-5-fluoro-N6-[(6-methylsulfonyl-3-pyridyl)methyl]-N4-[[6-(trifluoromethyl)-3-pyridyl]methyl]pyrimidine-4,6-diamine]
> 6.30	> 80	>20	–	COc1ccc2cc(CN(C)c3ncnc(NCc4ccc(CC(N)=O)cc4)c3F)ccc2c1 [Example A120, 2-[4-[[[5-fluoro-6-[(6-methoxy-2-naphthyl)methyl-methyl-amino]pyrimidin-4-yl]amino]methyl]phenyl]acetamide]
> 6.30	–	>0	>20	CCCn1nc(C)cc1CN(C)c1ncnc(NCc2ccc(CC(N)=O)cc2)c1F [Example A124, 2-[4-[[[5-fluoro-6-[methyl-[(5-methyl-2-propyl-pyrazol-3-yl)methyl]amino]pyrimidin-4-yl]amino]methyl]phenyl]acetamide]
> 6.30	> 50	>0	–	Cc1nc(C)c(C(C)N(C)c2ncnc(NCc3ccc(CC(N)=O)cc3)c2F)s1 (stereo not shown) [Example A125, 2-[4-[[[6-[1-(2,4-dimethylthiazol-5-yl)ethyl-methyl-amino]-5-fluoro-pyrimidin-4-yl]amino]methyl]phenyl]acetamide]
> 6.30	> 20	>0	–	Cc1ccc(CN(C)c2ncnc(NCc3ccc(CC(N)=O)cc3)c2F)c(C)c1 [Example A138, 2-[4-[[[6-[(2,4-dimethylphenyl)methyl-methyl-amino]-5-fluoro-pyrimidin-4-yl]amino]methyl]phenyl]acetamide]
> 6.30	> 50	>0	–	CN(Cc1cccc(-n2cccn2)c1)c1ncnc(NC[C@H]2CC[C@H](NS(=O)(=O)C(F)(F)F)CC2)c1F [Example A142, 1,1,1-trifluoro-N-[4-[[[5-fluoro-6-[methyl-[(3-pyrazol-1-ylphenyl)methyl]amino]pyrimidin-4-yl]amino]methyl]cyclohexyl] methanesulfonamide]
> 6.30	> 80	>20	–	CN(Cc1cccc(-n2cccn2)c1)c1ncnc(NCC2CCN(S(C)(=O)=O)CC2)c1F [Example A143, 5-fluoro-N6-methyl-N4-[(1-methylsulfonyl-4-piperidyl)methyl]-N6-[(3-pyrazol-1-ylphenyl)methyl]pyrimidine-4,6-diamine]
> 6.30	> 50	>0	–	CCN(CC1COc2ccccc2O1)c1ncnc(NCc2ccc(CC(N)=O)cc2)c1F (stereo not shown) [Example A145, 2-[4-[[[6-[2,3-dihydro-1,4-benzodioxin-3-ylmethyl(ethyl)amino]-5-fluoro-pyrimidin-4-yl]amino]methyl]phenyl]acetamide]
> 6.30	> 80	>50	–	CS(=O)(=O)c1ccc(CCNc2ncnc(N(Cc3ccc(C(F)(F)F)cc3)C3CC3)c2F)cc1 [Example A147, N4-cyclopropyl-5-fluoro-N6-[2-(4-methylsulfonylphenyl)ethyl]-N4-[[4-(trifluoromethyl)phenyl]methyl] pyrimidine-4,6-diamine]
> 6.30	> 20	>0	–	CCCn1nc(C)cc1CN(C)c1ncnc(NCC2CCN(S(C)(=O)=O)CC2)c1F [Example A148, 5-fluoro-N4-methyl-N4-[(5-methyl-2-propyl-pyrazol-3-yl)methyl]-N6-[(1-methylsulfonyl-4-piperidyl)methyl]pyrimidine-4,6-diamine]
> 6.30	> 20	–	–	CCCn1nc(C)cc1CN(C)c1ncnc(NCC2CCN(S(=O)(=O)C(F)F)CC2)c1F [Example A149, N6-[[1-(difluoromethylsulfonyl)-4-piperidyl]methyl]-5-fluoro-N4-methyl-N4-[(5-methyl-2-propyl-pyrazol-3-yl)methyl]pyrimidine-4,6-diamine]
> 5.70	> 20	–	–	CCCn1nc(C)cc1CN(C)c1ncnc(NCc2ccc(CC(=O)O)cc2)c1F [Example A150, 2-[4-[[[5-fluoro-6-[methyl-[(5-methyl-2-propyl-pyrazol-3-yl)methyl]amino]pyrimidin-4-yl]amino]methyl]phenyl]acetic acid]
> 6.00	> 50	>0	–	CN(C)CCNC(=O)CC1(CNc2ncnc(N(Cc3ccc(C(F)(F)F)cc3)C3CC3)c2F)CCOCC1 [Example A151, 2-[4-[[[6-[cyclopropyl-[[4-(trifluoromethyl)phenyl]methyl]amino]-5-fluoro-pyrimidin-4-yl]amino]methyl]tetrahydropyran-4-yl]-N-(2-dimethylaminoethyl)acetamide]
> 6.00	> 50	>20	–	NC(=O)Cc1ccc(CNc2ncnc3c2ccn3Cc2ccc(C(F)(F)F)cc2)cc1 [Example A164, 2-[4-[[[7-[[4-(trifluoromethyl)phenyl]methyl]pyrrolo[2,3-d]pyrimidin-4-yl]amino]methyl]phenyl]acetamide]
